“Also recorded” adds a separate entry of the source.
Key:
[1] = tested on: model mice with choroidal neovascularization (CNV); test: CNV formation in laser-induced CNV model mice, intravitreal injection (Experiments 2 and 3); assay type: in vivo; settings: for CNV formation (area of CNV): 20 pmol intraocularly injected immediately after laser irradiation, 7 days, C57B/6J mice, FIG. 2
Protocol: [Experiment 2: Evaluation of Effect of Inhibiting CNV Formation by Compounds 1 to 3]
The synthesized compounds 1 to 3 and the above reference compound were administered to model mice with choroidal neovascularization (CNV) by intravitreal injection, and the CNV inhibition was evaluated. The details of the experiment are as follows. FIG. 2 illustrates the results.
100 mg/kg of ketamine and 10 mg/kg of xylazine were intraperitoneally injected into 6- to 8-week-old C57B/6J mice (Japan SLC, Inc.), and the mice were placed under anesthesia. Then, eyedrops (SANDOL P) containing tropicamide (5 mg/ml) and phenylephrine (5 mg/ml) were used to dilate the pupil. Any four points of the fundus were irradiated with a 532 nm argon laser (100 mW, 0.1 s, 75 μm) to form new blood vessels. The compound (20 pmol) was intraocularly injected immediately after the laser irradiation, and an ofloxacin (Tarivid) ophthalmic ointment was applied to the corneal surface to prevent infection and drying.
100 mg/kg of ketamine and 10 mg/kg of xylazine were intraperitoneally injected into the mice after 7 days had passed from the laser irradiation, and the mice were placed under anesthesia. Then, the mice underwent thoracotomy and were perfused with FITC-dextran (50 mg/ml; Life Technologies Japan Ltd.) through the left ventricle. After the perfusion, the eyes were enucleated and fixed in 4% paraformaldehyde. After the fixation, the corneas, crystalline lenses, and retinas were removed, and the flat mount of the choroid was obtained. CNV was imaged with a fluorescence microscope (BZ-9000; Keyence Corporation) so that the area of the CNV was measured.
An experiment was performed in the same manner as Experiment 2 by administering the compound 2 at different concentrations (0.2 µM, 2 µM, 20 µM), and the CNV inhibition was evaluated. FIG. 3 illustrates the results.

[2] = tested on: vascular endothelial growth factor (VEGF); test: VEGF protein in culture medium of ARPE-19 cells by ELISA (Experiment 1); assay type: cell-based, human; settings: compound 10 μM, TGF-β 1 nM, 72 hours, FIG. 1
Protocol: [Experiment 1: Evaluation of Effect of Inhibiting VEGF Expression by Compounds 1 to 3]
The synthesized compounds 1 to 3 and the following reference compound were administered to human retinal pigment epithelial cells (ARPE-19 cell line). After 3 days of cultivation, each culture medium was subjected to ELISA to determine a vascular endothelial growth factor (VEGF). The details of the experiment are as follows. FIG. 1 illustrates the results.
A retinal pigment epithelial cell line, i.e., ARPE-19 was used. The ARPE-19 was cultured in Ham's F-12/DMEM medium containing 10% fetal bovine serum and 1% penicillin-streptomycin solution. The cells were seeded on a 24 well plate at 1.0×10^4 cell/well. On the next day, the culture medium was replaced with 1% fetal bovine serum. Further, the culture medium was removed 24 hours later and replaced with a culture medium (containing 1% fetal bovine serum) to which the compound (10 μM) and TGF-β (1 nM) were added. The culture medium was replaced every 24 hours in the same manner. Then, the culture medium was collected after 72 hours had passed from the administration of the compound. An ELISA kit (manufactured by R&D Systems, Inc.) was used to measure the amount of VEGF protein in the culture medium. The absorbance was measured by an ARVO X5 multiplate reader.

[3] = tested on: model mice with choroidal neovascularization (CNV); test: CNV formation in CNV model mice, ophthalmic ointment (Experiment 4); assay type: in vivo; settings: ophthalmic ointment with 10 g compound 2 per 100 g, 7 μL three times a day, versus base material only, FIG. 4
Protocol: [Experiment 4: Preparation of Ophthalmic Ointment and Evaluation of Effect of Inhibiting CNV Formation by Using the Ophthalmic Ointment]
An ophthalmic ointment with the following composition was prepared.
60 g of liquid paraffin; and
30 g of white petrolatum.
An experiment was performed in the same manner as Experiment 2 except that the ophthalmic ointment was applied in a dose of 7 μL three times a day, instead of the intravitreal injection, and the CNV inhibition was evaluated. Moreover, an ophthalmic ointment containing only a base material was used as a control, and the same experiment was performed. FIG. 4 illustrates the results. A of FIG. 4 is a graph that indicates the area of CNV.

SRPK (kinase) = settings: see WO 2005/063293; cited from earlier work
[4] = tested on: retinal neovascularization; settings: Nowak D G, Bates D O et al., J. Bio. Chem. 2010; cited from earlier work
[5] = see WO 2005/063293; cited from earlier work

SMILES	melting point	CNV formation (area of CNV) [1]	amount of VEGF protein in the culture medium [2]	CNV formation (area of CNV) [3]	concentration dependence of reduction of CNV formation ([1]; intravitreal injection, FIG. 3)	SRPK (kinase) inhibition (SRPK (kinase))	retinal neovascularization [4]	antiviral activity [5]
COc1cc(/C=C2/C(=O)NN(c3ccc(Cl)c(Cl)c3)C2=O)ccc1O [compound 1, 1-(3,4-dichlorophenyl)-4-(4-hydroxy-3-methoxybenzylidene)pyrazolidine-3,5-dione]	260 °C (dec.)	significant	–	–	–	–	–	–
COc1cc(/C=C2\C(=N)N3N=C(C(F)(F)F)SC3=NC2=O)ccc1O [compound 2, 6-(4-hydroxy-3-methoxybenzylidene)-5-imino-2-(trifluoromethyl)-5,6-dihydro-7H-[1,3,4]thiadiazolo[3,2-a]pyrimidin-7-one]	224 to 225 °C	significant; also recorded: more prominent	particularly significant	reduced the CNV formation	reduced the CNV formation in a concentration-dependent manner	–	–	–
O=C(Nc1cc(C(F)(F)F)ccc1N1CCCCC1)c1ccncc1 [reference compound]	–	–	–	–	–	inhibits SRPK	suppress retinal neovascularization	has antiviral activity

Reference: patent publication US20190365762A1, “MEDICINAL COMPOSITION INHIBITING NEOVASCULARIZATION PROLIFERATION FACTOR” (KYOTO UNIVERSITY, priority 2014, published 2019)
